Our source for the IC50, inhibition and inhibition in vivo values is patent publication US20110190503A1, “Thiazolopyridin-2-yloxy-phenyl and thiazolopyrazin-2-yloxy-phenyl amines as modulators of leukotriene A4 hydrolase” (Janssen Pharmaceutical NV, priority 2008, published 2011).

SMILES strings stand for the structures.

In assay [1] the target is T1, recombinant human LTA4 hydrolase (rhLTA4H) (Homo sapiens, UniProt P09960).
T1 construct: made in house; host or cells: Spodoptera frugiperda (Sf-9) cells, recombinant baculovirus (pFastBac1)
T1 sequence (P09960 1-611): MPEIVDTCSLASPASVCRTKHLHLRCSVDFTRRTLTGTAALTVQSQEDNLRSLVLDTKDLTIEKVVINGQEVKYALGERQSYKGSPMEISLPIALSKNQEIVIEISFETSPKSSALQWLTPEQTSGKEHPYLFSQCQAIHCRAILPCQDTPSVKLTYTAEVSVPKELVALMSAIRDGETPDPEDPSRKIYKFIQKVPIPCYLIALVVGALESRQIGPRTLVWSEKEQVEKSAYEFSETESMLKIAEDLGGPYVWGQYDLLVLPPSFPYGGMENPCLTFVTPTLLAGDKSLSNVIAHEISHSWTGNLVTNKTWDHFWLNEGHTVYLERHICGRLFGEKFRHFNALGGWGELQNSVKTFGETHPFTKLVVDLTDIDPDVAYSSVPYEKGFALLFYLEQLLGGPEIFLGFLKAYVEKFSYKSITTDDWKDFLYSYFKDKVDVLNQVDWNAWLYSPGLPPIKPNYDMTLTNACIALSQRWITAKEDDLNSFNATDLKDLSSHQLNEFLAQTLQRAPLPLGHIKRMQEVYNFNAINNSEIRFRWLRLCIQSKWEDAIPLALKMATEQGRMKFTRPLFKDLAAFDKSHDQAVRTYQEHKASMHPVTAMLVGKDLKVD
Nature of the assay: Recombinant human LTA4 hydrolase assay for LTA4 hydrolase inhibitor activity. Format: biochemical. Particulars: rhLTA4H, LTA4 substrate, LTB4 by immunoassay; single determination or average; read-out: IC50. A digest of the protocol:
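LTB4 formed from LTA4 substrate (free acid from the methyl ester) was quantified by enzyme immunoassay after a 30 min rt reaction. Enzyme was 10 ng Sf-9-expressed human LTA4 hydrolase, pre-incubated 10 min with compound.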

The test system of assay [2] is LTB4 production by calcium ionophore-stimulated murine blood. Nature of the assay: LTB4 production by calcium ionophore-stimulated murine blood for LTA4H inhibitor activity. Format: cell-based, CD-1 mice. The following applies: Mus musculus; murine blood diluted 1 in 15, calcium ionophore A23187, LTB4 by immunoassay; read-out: IC50. Put shortly:
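LTB4 quantified by EIA in supernatants after murine (CD-1) heparinized whole blood was exposed to compound for 15 min, then to 7 μg/mL (final) A23187 for 30 min, all at 37° C. Reported values: single runs or means; three or more runs include SD.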

The test system of assay [3] is ex vivo stimulated LTB4 production. Nature of the assay: Murine arachidonic acid-induced inflammation model: ex vivo stimulated LTB4 production (% Inh. LTB4). The following applies: Mus musculus; female Balb/c mice, 30 mg/kg oral gavage; blood taken 3 h after arachidonic acid, ex vivo A23187 stimulation; number of determinations in parentheses. Here is the method: (§1) Assay 4: Murine Arachidonic Acid-Induced Inflammation Model
(§2) LTA4H inhibitor compounds of the present invention were dissolved in 20% cyclodextran/H2O at a concentration of 3 mg/mL. The solutions were administered by oral gavage to female Balb/c mice weighing approximately 20 grams each (0.2 mL per mouse, 30 mg of LTA4H inhibitor compound per kg). Sixty minutes after being administered an LTA4 inhibitor, each mouse received topical application of 20 μL of arachidonic acid (100 mg/mL in acetone) to the left ear and 20 μL of acetone only to the right ear. After 3 h, the mice were sacrificed, blood was withdrawn in heparinized syringes, and 8 mm ear biopsies were taken. Ear biopsies were weighed to determine edema and then frozen at −80° C. until needed for determination of neutrophil influx.
One hundred-microliter aliquots of heparinized blood were added to wells of a microtiter plate, along with equal volumes of RPMI-1640 medium, and calcium ionophore A23187 was added to each sample well (final concentration=[…]). The microtiter plate contents were incubated for 30 min at 37° C. in a humidified incubator. The reaction was terminated by centrifugation (833×g, 10 min at 4° C.). Supernatants were analyzed for LTB4 by a commercially available enzyme-linked immunoassay (Cayman Chemical Co.) in accordance with the manufacturer's instructions. The percent inhibition of ex vivo stimulated LTB4 production (% Inh. LTB4) was determined by comparison to animals treated identically except that the solution administered by oral gavage was devoid of inhibitor compound.
(§3) The number of determinations is indicated in parentheses following each value

A further assay concerns neutrophil influx. Put plainly: Murine arachidonic acid-induced inflammation model: neutrophil influx in ear, myeloperoxidase activity (% Inh. MPO). Format: in vivo. Particulars: Mus musculus, female Balb/c mice, 30 mg/kg oral gavage, ear biopsy 3 h after topical arachidonic acid, number of determinations in parentheses. Here is the method:
as §1, §2
Neutrophil influx was quantified by measuring the activity of myeloperoxidase (MPO), a neutrophil-specific enzyme. The ear biopsies were homogenized in 0.5 mL extraction buffer (0.3 M sucrose, 0.22% (w/v) hexadecyl trimethyl ammonium bromide (CTAB), and 2.5 mM citrate prepared from 0.5 M citrate stock solution (pH 5.0)), in a Fast-Prep-24 (MP™) (40 seconds at 6 mps). Debris was removed by centrifugation at 14000×g for 10 min. Aliquots of 10 μL of the resulting supernatant were added to wells of a microtiter plate, along with 90-μL aliquots of dilution buffer (10 mM citrate, 0.22% CTAB), followed by addition of 20 μL TMB liquid substrate system (Sigma Chemical Co.) to each sample well. The microtiter plate contents were held at room temperature until the sample with the highest concentration of MPO reached an absorbance value of 0.4 at 650 nm. The reaction was stopped by addition of 50 μL 1 M H2SO4 to each sample well, and the myeloperoxidase activity in each sample was determined from the absorbance at 405 nm. The background value from the right ear, treated only with acetone, was subtracted from that for the left ear, treated with arachidonic acid in acetone, for each animal. The percent inhibition of neutrophil influx (% Inh. MPO) by compounds of the invention was determined by comparison to animals treated identically, except that the solution administered by oral gavage was devoid of inhibitor compound.
as §3

With `CC(=O)N1CC2CN(CCOc3ccc(Oc4nc5ncccc5s4)cc3)CC2C1` (stereo not drawn) [Example 18, 2-{4-[2-(5-Acetylhexahydropyrrolo[3,4-c]pyrrol-2(1H)-yl)ethoxy]phenoxy}[1,3]thiazolo[4,5-b]pyridine], the half-maximal inhibitory concentration (IC50) (usually the concentration that inhibits the measured activity by half) was found to be 0.0055 µM in assay [1] and 0.032 ± 0.024 µM in assay [2]. Also, the inhibition (as a rule, the drop in the measured response relative to a control, in per cent) at 30 mg/kg in assay [3] was found to be 80.9%. Further, in the assay with neutrophil influx, the inhibition in vivo (in general, the drop in the measured response relative to a control, in per cent) at 30 mg/kg came to 86.1%.

On to `c1cnc2nc(Oc3ccc(CCN4CCCC4)cc3)sc2c1` [Example 61, 2-[4-(2-Pyrrolidin-1-ylethyl)phenoxy][1,3]thiazolo[4,5-b]pyridine], for which the figures for the IC50 in assay [1] and in assay [2] were 0.004 µM and 0.011 µM, respectively. In assay [3], the inhibition at 30 mg/kg stood at 67.4%. For the same compound, the inhibition in vivo at 30 mg/kg with neutrophil influx came to 62.8%.

As to `O=C1C[C@@H](O)CN1C1CCN(CCOc2ccc(Oc3nc4ncccc4s3)cc2)CC1` [Example 270, (4R)-4-Hydroxy-1-(1-{2-[4-([1,3]thiazolo[4,5-b]pyridin-2-yloxy)phenoxy]ethyl}piperidin-4-yl)pyrrolidin-2-one], the IC50 in assay [1] amounted to 0.01 µM; in assay [2], 0.12 µM. Further, in assay [3], the inhibition at 30 mg/kg was found to be 75.9%. Further, the inhibition in vivo at 30 mg/kg in the assay with neutrophil influx came to 60.6%.

On to `c1cnc2nc(Oc3ccc(CN4CCCC4)cc3)sc2c1` [Example 84, 2-[4-(Pyrrolidin-1-ylmethyl)phenoxy][1,3]thiazolo[4,5-b]pyridine], for which the figures for the IC50 in assay [1] and in assay [2] were 0.0021 µM and 0.039 µM, respectively. The inhibition at 30 mg/kg in assay [3] was 53.9%. Moreover, in the assay with neutrophil influx, the inhibition in vivo at 30 mg/kg was found to be 72%.

As to `NC(=O)C1CCN(Cc2ccc(Oc3nc4ncccc4s3)cc2)CC1` [Example 100, 1-[4-([1,3]Thiazolo[4,5-b]pyridin-2-yloxy)benzyl]piperidine-4-carboxamide], the IC50 is 0.0072 µM in assay [1] and 0.11 µM in assay [2]. Moreover, the inhibition at 30 mg/kg in assay [3] stood at 85.3%. The inhibition in vivo at 30 mg/kg in the assay with neutrophil influx came to 88.7%.

For `CC(=O)N[C@H]1C[C@H]2CC[C@@H](C1)N2CCc1ccc(Oc2nc3ncccc3s2)cc1` [Example 76, meso-N-[(3-endo)-8-{2-[4-([1,3]Thiazolo[4,5-b]pyridin-2-yloxy)phenyl]ethyl}-8-azabicyclo[3.2.1]oct-3-yl]acetamide], the IC50 came to 0.0005 µM in assay [1] and 0.065 µM in assay [2]. Further, the inhibition at 30 mg/kg in assay [3] came to 85.3%. Also, in the assay with neutrophil influx, the inhibition in vivo at 30 mg/kg was determined as 78.3%.

As to `O=C1C[C@@H](O)CN1C1CCN(Cc2ccc(Oc3nc4ncccc4s3)cc2)CC1` [Example 269, (4R)-4-Hydroxy-1-{1-[4-([1,3]thiazolo[4,5-b]pyridin-2-yloxy)benzyl]piperidin-4-yl}pyrrolidin-2-one], the IC50 in assay [1] was 0.003 µM; in assay [2], 0.077 µM. Also, the inhibition at 30 mg/kg in assay [3] was 84.4%. Further, the inhibition in vivo at 30 mg/kg in the assay with neutrophil influx came out at 90.6%.

`NC(=O)C1CCN(Cc2ccc(Oc3nc4ncc(F)cc4s3)cc2)CC1` [Example 283, 1-{4-[(6-Fluoro[1,3]thiazolo[4,5-b]pyridin-2-yl)oxy]benzyl}piperidine-4-carboxamide]: the half-inhibitory concentration (IC50) in assay [2] was 0.068 µM. The inhibition at 30 mg/kg in assay [3] stood at 78.2%. In the assay with neutrophil influx, the inhibition in vivo at 30 mg/kg was 88.3%.

For `NC(=O)N[C@@H]1C[C@H]2CC[C@@H](C1)N2CCc1ccc(Oc2nc3ncccc3s2)cc1` [Example 50, meso-1-[(3-exo)-8-{2-[4-([1,3]Thiazolo[4,5-b]pyridin-2-yloxy)phenyl]ethyl}-8-azabicyclo[3.2.1]oct-3-yl]urea], the figures for the concentration for half-maximal inhibition (IC50) in assay [1] and in assay [2] were 0.002 µM and 2.3 µM, respectively.

Consider `OC1(c2cccc(C(F)(F)F)c2)CCN(CCOc2ccc(Oc3nc4ncccc4s3)cc2)CC1` [Example 33, 1-{2-[4-([1,3]Thiazolo[4,5-b]pyridin-2-yloxy)phenoxy]ethyl}-4-[3-(trifluoromethyl)phenyl]piperidin-4-ol], for which the figures for the 50% inhibitory concentration (IC50) in assay [1] and in assay [2] were 0.017 µM and 0.48 µM, respectively.

With `OC1(c2ccc(Cl)cc2)CCN(CCOc2ccc(Oc3nc4ncccc4s3)cc2)CC1` [Example 30, 4-(4-Chlorophenyl)-1-{2-[4-([1,3]thiazolo[4,5-b]pyridin-2-yloxy)phenoxy]ethyl}piperidin-4-ol], the IC50 in assay [1] was determined as 0.03 µM; in assay [2], 0.15 µM.

Consider `c1cnc2sc(Oc3ccc(OCCN4CCC(c5ccncc5)CC4)cc3)nc2c1` [Example 42, 2-{4-[2-(4-Pyridin-4-ylpiperidin-1-yl)ethoxy]phenoxy}[1,3]thiazolo[5,4-b]pyridine], for which the IC50 in assay [1] came out at 0.083 µM; in assay [2], 0.58 µM.

Consider `c1cnc(OC2CCN(CCOc3ccc(Oc4nc5ncccc5s4)cc3)CC2)nc1` [Example 1, 2-(4-{2-[4-(Pyrimidin-2-yloxy)piperidin-1-yl]ethoxy}phenoxy)[1,3]thiazolo[4,5-b]pyridine], for which the IC50 in assay [1] stood at 0.001 µM; in assay [2] it was 0.15 µM.

As to `O=C(O)C1CCN(CCc2ccc(Oc3nc4ncccc4s3)cc2)CC1` [Example 81, 1-{2-[4-([1,3]Thiazolo[4,5-b]pyridin-2-yloxy)phenyl]ethyl}piperidine-4-carboxylic acid], the IC50 was 0.027 µM in assay [1] and 4.25 µM in assay [2].

`O[C@@H]1CCN(Cc2ccc(Oc3nc4ncccc4s3)cc2)C1` [Example 94, (3R)-1-[4-([1,3]Thiazolo[4,5-b]pyridin-2-yloxy)benzyl]pyrrolidin-3-ol]: the IC50 is 0.004 µM in assay [1] and 0.035 µM in assay [2].

Turning to `CS(=O)(=O)NC1CCN(CCOc2ccc(Oc3nc4ncccc4s3)cc2)CC1` [Example 163, N-[1-(2-{[4-([1,3]Thiazolo[4,5-b]pyridin-2-yloxy)phenyl]oxy}ethyl)piperidin-4-yl]methanesulfonamide], the IC50 came to 0.006 µM in assay [1] and 0.031 µM in assay [2].

As for `O=C(O)CCNCc1ccc(Oc2nc3ncccc3s2)cc1` [Example 275, N-[4-([1,3]Thiazolo[4,5-b]pyridin-2-yloxy)benzyl]-beta-alanine], the IC50 in assay [1] is 0.047 µM; in assay [2], 3.3 µM.

Turning to `OC1(c2ccccn2)CCN(CCOc2ccc(Oc3nc4ncccc4s3)cc2)CC1` [Example 5, 4-Pyridin-2-yl-1-{2-[4-([1,3]thiazolo[4,5-b]pyridin-2-yloxy)phenoxy]ethyl}piperidin-4-ol], the values for the IC50 in assay [1] and in assay [2] were 0.014 µM and 0.14 µM, respectively.
